One experiment concerns PC-3. As to the kind of experiment: Antiproliferative activity against human PC3 cells by CCK8 assay. Type of experiment: functional, cell-based. In general terms: Tetrazolium dyes change colour on reduction, which living cells bring about.
The subject of another experiment is HepG2. Nature of the experiment: Antiproliferative activity against human HepG2 cells by CCK8 assay. The format is functional, cell-based.
For another experiment, the system named is MCF-10A. As to the kind of experiment: Antiproliferative activity against human MCF10A cells by CCK8 assay. The format is cell-based.
Another experiment concerns HeLa. As to the kind of experiment: Antiproliferative activity against human HeLa cells by CCK8 assay. Type of experiment: functional, cell-based.
The next experiment relates to A549. Nature of the experiment: Antiproliferative activity against human A549 cells by CCK8 assay. The format is functional, cell-based.
For another experiment, the system named is MCF7. As to the kind of experiment: Antiproliferative activity against human MCF7 cells by CCK8 assay. The format is functional, cell-based.
Experiment [1] deals with RAC-alpha serine/threonine-protein kinase (Homo sapiens, UniProt P31749). Nature of the experiment: Inhibition of PKBalpha (unknown origin).
RAC-alpha serine/threonine-protein kinase, sequence (P31749 whole entry): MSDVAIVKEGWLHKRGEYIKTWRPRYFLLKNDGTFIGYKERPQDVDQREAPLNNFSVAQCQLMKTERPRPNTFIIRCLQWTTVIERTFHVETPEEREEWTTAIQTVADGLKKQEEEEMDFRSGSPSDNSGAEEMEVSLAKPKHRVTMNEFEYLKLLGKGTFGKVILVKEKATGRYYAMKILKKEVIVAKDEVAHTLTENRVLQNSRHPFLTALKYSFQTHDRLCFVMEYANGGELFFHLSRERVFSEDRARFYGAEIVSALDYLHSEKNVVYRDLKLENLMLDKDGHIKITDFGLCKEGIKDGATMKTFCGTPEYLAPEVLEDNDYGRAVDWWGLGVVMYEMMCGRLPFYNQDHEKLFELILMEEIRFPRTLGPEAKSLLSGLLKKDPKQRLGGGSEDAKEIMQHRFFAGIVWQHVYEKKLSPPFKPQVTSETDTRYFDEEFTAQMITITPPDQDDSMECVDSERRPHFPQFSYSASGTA
In experiment [2] the target is T1, Inhibitor of nuclear factor kappa-B kinase subunit alpha (Homo sapiens, UniProt O15111).
T1 sequence (O15111 whole entry): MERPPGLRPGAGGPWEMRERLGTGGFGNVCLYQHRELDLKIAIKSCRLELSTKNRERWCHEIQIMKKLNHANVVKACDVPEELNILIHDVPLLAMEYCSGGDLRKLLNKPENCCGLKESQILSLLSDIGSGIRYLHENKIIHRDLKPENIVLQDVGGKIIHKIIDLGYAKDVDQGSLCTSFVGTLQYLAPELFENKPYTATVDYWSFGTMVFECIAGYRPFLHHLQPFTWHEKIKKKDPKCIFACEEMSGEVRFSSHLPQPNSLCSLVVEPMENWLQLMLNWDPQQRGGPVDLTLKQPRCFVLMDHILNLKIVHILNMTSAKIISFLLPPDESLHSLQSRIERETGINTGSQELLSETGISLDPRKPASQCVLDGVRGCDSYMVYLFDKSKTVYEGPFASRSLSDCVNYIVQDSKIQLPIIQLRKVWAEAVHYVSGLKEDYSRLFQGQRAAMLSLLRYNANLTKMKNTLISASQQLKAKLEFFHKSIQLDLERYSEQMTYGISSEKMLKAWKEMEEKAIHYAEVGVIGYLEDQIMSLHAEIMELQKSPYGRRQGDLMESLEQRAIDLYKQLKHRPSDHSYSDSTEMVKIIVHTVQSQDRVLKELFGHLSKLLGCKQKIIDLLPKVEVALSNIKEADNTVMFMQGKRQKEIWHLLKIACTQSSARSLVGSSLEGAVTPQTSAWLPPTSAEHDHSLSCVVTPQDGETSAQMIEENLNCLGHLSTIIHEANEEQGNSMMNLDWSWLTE
As to the kind of experiment: Inhibition of IKKalpha (unknown origin).

Experiment [3] addresses RAC-gamma serine/threonine-protein kinase (Homo sapiens, UniProt Q9Y243). Nature of the experiment: Inhibition of PKBgamma (unknown origin).
Experiment [4] addresses RAC-beta serine/threonine-protein kinase (Homo sapiens, UniProt P31751). As to the kind of experiment: Inhibition of PKBbeta (unknown origin).
The target of experiment [5] is T2, Inhibitor of nuclear factor kappa-B kinase subunit beta (Homo sapiens, UniProt O14920).
T2 sequence (O14920 whole entry): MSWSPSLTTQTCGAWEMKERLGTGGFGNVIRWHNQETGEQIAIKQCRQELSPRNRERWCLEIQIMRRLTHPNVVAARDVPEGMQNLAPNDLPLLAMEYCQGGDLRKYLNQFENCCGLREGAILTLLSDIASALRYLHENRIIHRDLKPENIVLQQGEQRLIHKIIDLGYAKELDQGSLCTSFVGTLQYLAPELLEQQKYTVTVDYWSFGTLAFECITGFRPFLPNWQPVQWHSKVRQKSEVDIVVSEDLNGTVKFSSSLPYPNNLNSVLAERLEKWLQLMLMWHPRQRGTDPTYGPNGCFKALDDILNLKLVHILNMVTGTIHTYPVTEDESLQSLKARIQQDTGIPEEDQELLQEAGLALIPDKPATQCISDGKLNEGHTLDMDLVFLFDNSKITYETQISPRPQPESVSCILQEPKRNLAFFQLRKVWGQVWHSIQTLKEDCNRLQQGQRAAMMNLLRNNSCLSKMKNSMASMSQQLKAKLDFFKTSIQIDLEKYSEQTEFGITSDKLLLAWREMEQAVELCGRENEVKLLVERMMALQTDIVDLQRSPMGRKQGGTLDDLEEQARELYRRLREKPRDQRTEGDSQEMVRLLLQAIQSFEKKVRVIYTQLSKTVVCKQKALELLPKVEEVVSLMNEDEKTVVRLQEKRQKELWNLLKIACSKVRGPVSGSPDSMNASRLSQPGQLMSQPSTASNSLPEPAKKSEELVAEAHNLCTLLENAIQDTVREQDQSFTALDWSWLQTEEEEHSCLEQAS
As to the kind of experiment: Inhibition of IKKbeta (unknown origin).

For another experiment, the system named is SMMC-7721. Nature of the experiment: Cytotoxicity against human SMMC7721 cells assessed as reduction in cell viability. The format is functional, cell-based.
The subject of a further experiment is L1210. As to the kind of experiment: Cytotoxicity against mouse L1210 cells assessed as reduction in cell viability. Type of experiment: functional, cell-based.
A further experiment has as its system HL-60. As to the kind of experiment: Cytotoxicity against human HL60 cells assessed as reduction in cell viability. Type of experiment: functional, cell-based.

RAC-gamma serine/threonine-protein kinase, sequence (Q9Y243 whole entry): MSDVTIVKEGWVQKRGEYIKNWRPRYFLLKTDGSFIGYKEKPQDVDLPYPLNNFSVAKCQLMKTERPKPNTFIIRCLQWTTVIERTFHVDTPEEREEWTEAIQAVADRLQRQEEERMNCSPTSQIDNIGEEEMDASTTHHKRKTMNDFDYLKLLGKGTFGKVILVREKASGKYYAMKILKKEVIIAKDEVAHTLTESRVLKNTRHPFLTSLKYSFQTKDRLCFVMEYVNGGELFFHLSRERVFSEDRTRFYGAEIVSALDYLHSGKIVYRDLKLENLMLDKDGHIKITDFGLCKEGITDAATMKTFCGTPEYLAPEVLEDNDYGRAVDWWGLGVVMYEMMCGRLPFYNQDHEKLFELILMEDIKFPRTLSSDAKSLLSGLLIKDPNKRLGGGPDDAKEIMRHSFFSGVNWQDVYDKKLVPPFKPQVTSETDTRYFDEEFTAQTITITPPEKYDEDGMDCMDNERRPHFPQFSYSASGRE
RAC-beta serine/threonine-protein kinase, sequence (P31751 whole entry): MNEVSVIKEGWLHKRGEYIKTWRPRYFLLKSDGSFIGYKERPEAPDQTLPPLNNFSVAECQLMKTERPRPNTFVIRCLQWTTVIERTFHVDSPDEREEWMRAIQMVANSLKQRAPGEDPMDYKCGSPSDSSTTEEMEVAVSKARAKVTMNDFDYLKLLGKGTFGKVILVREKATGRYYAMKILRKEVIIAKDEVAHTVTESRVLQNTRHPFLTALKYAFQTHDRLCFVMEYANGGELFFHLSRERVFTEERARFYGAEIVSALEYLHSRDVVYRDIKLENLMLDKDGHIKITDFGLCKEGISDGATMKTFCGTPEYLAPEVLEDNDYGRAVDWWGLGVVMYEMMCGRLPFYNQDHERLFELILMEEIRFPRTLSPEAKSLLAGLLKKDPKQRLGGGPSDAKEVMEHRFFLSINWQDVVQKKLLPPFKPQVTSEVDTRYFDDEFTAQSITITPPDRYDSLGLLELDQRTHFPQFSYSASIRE

`C[C@H]1COc2c(N3CCN(C)CC3)c(F)cc3c(=O)c(C(=O)OCc4cn(CCCCCCC(=O)O)nn4)cn1c23`: the half-inhibitory concentration (IC50) (commonly the concentration needed to halve the response being measured) in the experiment with PC-3 is 7.8 to 16.5 µM; with HepG2, 7.8 to 16.5 µM; with MCF-10A, over 100 µM; in the experiment with HeLa, 7.8 to 16.5 µM; in the experiment on A549, 7.8 to 16.5 µM; in the experiment on MCF7, 7.8 to 16.5 µM.
For `O=C(/C=C/c1nc2ccccc2[nH]1)c1c(-c2ccccc2)c2cc(Br)ccc2[nH]c1=O`, the concentration for half-maximal inhibition (IC50) in experiment [1], in experiment [2], in [3], in experiment [4] and in experiment [5] was 1.64 to 44.5 µM each time.
Consider `CCn1cc(-c2nnc(SC/C(=N/NC(N)=S)c3ccc(O)c(OC)c3)[nH]2)c(=O)c2cc(F)c(N3CCN(C)CC3)cc21`, for which the half-maximal inhibitory concentration (IC50) in the experiment on SMMC-7721, in the experiment with L1210 and in the experiment on HL-60 was 2.7 to 8.6 µM throughout.
With `C[C@H]1COc2c(N3CCN(C)CC3)c(F)cc3c(=O)c(C(=O)NCc4cn(CCCCCC(=O)O)nn4)cn1c23`, the half-inhibitory concentration (IC50) in the experiment on PC-3 is 7.8 to 16.5 µM; in the experiment on HepG2 it was 7.8 to 16.5 µM; in the experiment with MCF-10A, over 100 µM; in the experiment with HeLa, 7.8 to 16.5 µM; with A549, 7.8 to 16.5 µM; in the experiment on MCF7 it was 7.8 to 16.5 µM.
For the compound `CCn1cc(-c2nnc(SC/C(=N/NC(N)=S)c3ccc4c(c3)OCO4)[nH]2)c(=O)c2cc(F)c(N3CCN(C)CC3)cc21`, the half-inhibitory concentration (IC50) with SMMC-7721, with L1210 and in the experiment on HL-60 was 2.7 to 27.6 µM throughout.
As for `O=C(/C=C/c1nc2cc(F)c(F)cc2[nH]1)c1c(-c2ccc(F)cc2)c2cc(F)ccc2[nH]c1=O`, the IC50 in experiment [1], in experiment [2], in experiment [3], in experiment [4] and in experiment [5] was 1.64 to 44.5 µM each time.
For `C[C@H]1COc2c(N3CCN(C)CC3)c(F)cc3c(=O)c(C(=O)NCc4cn(CCCCCCCC(=O)O)nn4)cn1c23`, the IC50 in the experiment on PC-3 is 7.8 to 16.5 µM; in the experiment with HepG2, 7.8 to 16.5 µM; in the experiment with MCF-10A, over 100 µM; in the experiment with HeLa, 7.8 to 16.5 µM; in the experiment on A549, 7.8 to 16.5 µM; with MCF7 it was 7.8 to 16.5 µM.
In the case of `O=C(/C=C/c1nc2cc(F)c(F)cc2[nH]1)c1c(-c2ccc(F)cc2)c2cc(Cl)ccc2[nH]c1=O`, the concentration for half-maximal inhibition (IC50) in experiment [1], in [2], in experiment [3], in [4] and in [5] was 1.64 to 44.5 µM throughout.
`CCn1cc(-c2nnc(SC/C(=N/NC(N)=S)c3ccccc3OC)[nH]2)c(=O)c2cc(F)c(N3CCN(C)CC3)cc21`: the half-inhibitory concentration (IC50) with SMMC-7721, in the experiment with L1210 and with HL-60 was 2.7 to 27.6 µM each time.
Turning to `O=C(/C=C/c1nc2cc(F)ccc2[nH]1)c1c(-c2ccccc2)c2cc(Cl)ccc2[nH]c1=O`, the concentration for half-maximal inhibition (IC50) in experiment [1], in experiment [2], in [3], in [4] and in [5] was 1.64 to 44.5 µM each time.
For `O=C(/C=C/c1nc2cc(F)c(F)cc2[nH]1)c1c(-c2ccc(F)c(F)c2)c2cc(F)ccc2[nH]c1=O`, the IC50 in experiment [1], in experiment [2], in experiment [3], in experiment [4] and in experiment [5] was 1.64 to 44.5 µM each time.
Take `CCn1cc(-c2nnc(SC/C(=N/NC(N)=S)c3ccccc3O)[nH]2)c(=O)c2cc(F)c(N3CCN(C)CC3)cc21`: the IC50 in the experiment on SMMC-7721, in the experiment with L1210 and in the experiment on HL-60 was 2.7 to 8.6 µM in each case.
For the compound `CCn1cc(-c2nnc(SC/C(=N/NC(N)=S)c3ccc([N+](=O)[O-])cc3)[nH]2)c(=O)c2cc(F)c(N3CCN(C)CC3)cc21`, the IC50 in the experiment with SMMC-7721, in the experiment on L1210 and in the experiment on HL-60 was 2.7 to 27.6 µM each time.
